Results taken from patent US10047098B2, “C5-C6-oxacyclic fused iminopyrimidinone compounds as bace inhibitors, compositions, and their use” (Merck Sharp & Dohme Corp., priority 2014, dated 2018).

Tests used:
[1] = target: Recombinant human soluble BACE1 catalytic domain (Homo sapiens (Human), UniProt P56817); experiment: BACE1 HTRF FRET Assay; assay type: biochemical; details: Ki calculated from IC50 using the Cheng-Prusoff equation; QSY7-APPswe-Eu substrate, pH 5.0; read-out: BACE-1 Ki
From the text: Reagents: Na^+-Acetate pH 5.0; 1% Brij-35; Glycerol; Dimethyl Sulfoxide (DMSO); Recombinant human soluble BACE1 catalytic domain (>95% pure); APP Swedish mutant peptide substrate (QSY7-APP^swe-Eu): QSY7-EISEVNLDAEFC-Europium-amide.
A homogeneous time-resolved FRET assay can be used to determine IC50 values for inhibitors of the soluble human BACE1 catalytic domain. This assay monitors the increase of 620 nm fluorescence that resulted from BACE1 cleavage of an APPswedish APP^swe mutant peptide FRET substrate (QSY7-EISEVNLDAEFC-Europium-amide). This substrate contains an N-terminal QSY7 moiety that serves as a quencher of the C-terminal Europium fluorophore (620 nm Em). In the absence of enzyme activity, 620 nm fluorescence is low in the assay and increased linearly over 3 hours in the presence of uninhibited BACE1 enzyme. Inhibition of BACE1 cleavage of the QSY7-APP^swe-Eu substrate by inhibitors is manifested as a suppression of 620 nm fluorescence.
Varying concentrations of inhibitors at 3× the final desired concentration in a volume of 10 ul are preincubated with purified human BACE1 catalytic domain (3 nM in 10 μl) for 30 minutes at 30° C. in reaction buffer containing 20 mM Na-Acetate pH 5.0, 10% glycerol, 0.1% Brij-35 and 7.5% DSMO. Reactions are initiated by addition of 10 μl of 600 nM QSY7-APP^swe-Eu substrate (200 nM final) to give a final reaction volume of 30 μl in a 384 well Nunc HTRF plate. The reactions are incubated at 30° C. for 1.5 hours. The 620 nm fluorescence is then read on a Rubystar HTRF plate reader (BMG Labtechnologies) using a 50 millisecond delay followed by a 400 millisecond acquisition time window. Inhibitor IC50 values are derived from non-linear regression analysis of concentration response curves. Ki values are then calculated from IC50 values using the Cheng-Prusoff equation using a previously determined […] of 8 μM for the QSY7-APP^swe-Eu substrate at BACE1.

[2] = target: purified human autoBACE-2 (Homo sapiens (Human), UniProt Q9Y5Z0); experiment: BACE-2 Assay (BACE-HTRF assay); assay type: biochemical; details: Ki calculated from IC50 using the Cheng-Prusoff equation; QSY7-EISEVNLDAEFC-Eu-amide substrate, pH 5.0
Procedure: Inhibitor IC50s at purified human autoBACE-2 are determined in a time-resolved endpoint proteolysis assay that measures hydrolysis of the QSY7-[…]-Eu-amide FRET peptide substrate (BACE-HTRF assay). […] DMSO is present at 5% final concentration in the assay. Following laser excitation of sample wells at 320 nm, the fluorescence signal at 620 nm is collected for 400 ms following a 50 μs delay on a RUBYstar HTRF plate reader (BMG Labtechnologies). Raw RFU data is normalized to maximum (1.0 nM BACE/DMSO) and minimum (no enzyme/DMSO) RFU values. […] The Ki values are calculated from the IC50 using the Cheng-Prusoff equation.

Recombinant human soluble BACE1 catalytic domain, sequence (P56817 75-416): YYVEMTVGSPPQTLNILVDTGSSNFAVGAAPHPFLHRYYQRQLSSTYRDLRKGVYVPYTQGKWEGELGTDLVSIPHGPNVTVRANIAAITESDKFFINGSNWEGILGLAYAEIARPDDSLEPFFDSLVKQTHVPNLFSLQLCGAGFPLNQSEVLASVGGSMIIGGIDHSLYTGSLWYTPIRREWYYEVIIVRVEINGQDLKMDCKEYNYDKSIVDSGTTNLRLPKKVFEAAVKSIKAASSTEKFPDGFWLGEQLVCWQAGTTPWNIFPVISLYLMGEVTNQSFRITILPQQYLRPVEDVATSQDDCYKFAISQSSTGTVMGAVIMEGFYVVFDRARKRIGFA
purified human autoBACE-2, sequence (Q9Y5Z0 63-473 limits assumed): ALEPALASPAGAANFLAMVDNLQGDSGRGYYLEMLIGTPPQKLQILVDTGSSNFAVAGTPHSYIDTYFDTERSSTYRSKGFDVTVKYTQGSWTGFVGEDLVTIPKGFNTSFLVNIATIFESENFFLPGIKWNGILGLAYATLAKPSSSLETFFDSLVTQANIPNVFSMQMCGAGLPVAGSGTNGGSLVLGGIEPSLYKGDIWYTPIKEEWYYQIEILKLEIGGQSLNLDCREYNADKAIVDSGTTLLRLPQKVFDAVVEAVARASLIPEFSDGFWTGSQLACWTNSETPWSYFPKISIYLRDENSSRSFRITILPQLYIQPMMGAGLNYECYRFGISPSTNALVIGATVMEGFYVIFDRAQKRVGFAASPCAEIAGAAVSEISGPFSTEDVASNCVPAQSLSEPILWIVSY

Ki [1] [nM]	Ki [2] [nM]	Structure (SMILES)
43	42	CN1C(=N)N[C@@]2(c3cc(Oc4ccnc(-n5cncn5)c4)ccc3F)CO[C@@H](C3CC3)C[C@H]2C1=O [Example 16, (4aR,6R,8aS)-8a-(5-((2-(1H-1,2,4-triazol-1-yl)pyridin-4-yl)oxy)-2-fluorophenyl)-6-cyclopropyl-2-imino-3-methylhexahydro-1H-pyrano[3,4-d]pyrimidin-4(4aH)-one]
45.7	23.5	C[C@H]1C[C@H]2C(=O)N(C)C(=N)N[C@@]2(c2cc(Oc3cc(F)ccc3F)ccc2F)CO1 [Example 82, (4aR,6S,8aS)-8a-(5-(2,5-difluorophenoxy)-2-fluorophenyl)-2-imino-3,6-dimethylhexahydro-1H-pyrano[3,4-d]pyrimidin-4(4aH)-one]
295	32.3	Cc1cccnc1Oc1ccc(F)c([C@]23CO[C@@H](C)C[C@H]2C(=O)N(C)C(=N)N3)c1 [Example 73, (4aR,6S,8aS)-8a-(2-fluoro-5-((3-methylpyridin-2-yl)oxy)phenyl)-2-imino-3,6-dimethylhexahydro-lH-pyrano[3,4-d]pyrimidin-4(4aH)-one]
11.1	2.19	C[C@H]1C[C@H]2C(=O)N(C)C(=N)N[C@@]2(c2cc(OCC3CC3)ncc2F)CO1 [Example 92, (4aR,6S,8aS)-8a-(2-(cyclopropylmethoxy)-5-fluoropyridin-4-yl)-2-imino-3,6-dimethylhexahydro-1H-pyrano[3,4-d]pyrimidin-4(4aH)-one]
54	11	CN1C(=N)N[C@@]2(c3cc(Oc4ccncc4)ccc3F)CO[C@@H](C3CC3)C[C@H]2C1=O [Example 40, (4aR,6R,8aS)-6-cyclopropyl-8a-(2-fluoro-5-(pyridin-4-yloxy)phenyl)-2-imino-3-methylhexahydro-1H-pyrano[3,4-d]pyrimidin-4(4aH)-one]
110	105	C[C@H]1C[C@H]2C(=O)N(C)C(=N)N[C@@]2(c2ccc(F)cc2F)CO1 [Example 11, (4aR,65,8aS)-8a-(2,4-difluorophenyl)-2-imino-3,6-dimethylhexahydro-1H-pyrano[3,4-d]pyrimidin-4(4aH)-one]
3	11	COC[C@H]1C[C@H]2C(=O)N(C)C(=N)N[C@@]2(c2cc(Oc3cc(C#N)ccn3)c(F)cc2F)CO1 [Example 2, 2-(2,4-difluoro-5-((4aR,6R,8aS)-2-imino-6-(methoxymethyl)-3-methyl-4-oxohexahydro-1H-pyrano[3,4-d]pyrimidin-8a(8H)-yl)phenoxy)isonicotinonitrile]
312	254	CN1C(=N)N[C@@]2(c3ccc(F)cc3F)CO[C@@H](C(F)F)C[C@H]2C1=O [Example 7, (4aR,6R,8aS)-6-(difluoromethyl)-8a-(2,4-difluorophenyl)-2-imino-3-methylhexahydro-1H-pyrano[3,4-d]pyrimidin-4(4aH)-one]
31	18	CN1C(=N)N[C@@]2(c3cc(OCC4CC4(F)F)ccc3F)CO[C@@H](C3CC3)C[C@H]2C1=O (stereo partly shown) [Example 52]
16	54	CN1C(=N)N[C@@]2(c3cc(Oc4cncc(C(F)F)n4)ccc3F)CO[C@@H](C3CC3)C[C@H]2C1=O [Example 29, (4aR,6R,8aS)-6-cyclopropyl-8a-(5-((6-(difluoromethyl)pyrazin-2-yl)oxy)-2-fluorophenyl)-2-imino-3-methylhexahydro-1H-pyrano[3,4-d]pyrimidin-4(4aH)-one]
1	3	COC[C@H]1C[C@H]2C(=O)N(C)C(=N)N[C@@]2(c2cc(Oc3ncccc3F)c(F)cc2F)CO1 [Example 3, (4aR,6R,8aS)-8a-(2,4-difluoro-5-((3-fluoropyridin-2-yl)oxy)phenyl)-2-imino-6-(methoxymethyl)-3-methylhexahydro-1H-pyrano[3,4-d]pyrimidin-4(4aH)-one]
21	9	COC[C@H]1C[C@H]2C(=O)N(C)C(=N)N[C@@]2(c2cc(OCC3CC3)ccc2F)CO1 [Example 32, (4aR,6R,8aS)-8a-(5-(cyclopropylmethoxy)-2-fluorophenyl)-2-imino-6-(methoxymethyl)-3-methylhexahydro-1H-pyrano[3,4-d]pyrimidin-4(4aH)-one]
13.3	25.2	Cc1cncc(Oc2ccc(F)c([C@]34CO[C@@H](C)C[C@H]3C(=O)N(C)C(=N)N4)c2)n1 [Example 67, (4aR,6S,8aS)-8a-(2-fluoro-5-((6-methylpyrazin-2-yl)oxy)phenyl)-2-imino-3,6-dimethylhexahydro-1H-pyrano[3,4-d]pyrimidin-4(4aH)-one]
106	65	CN1C(=N)N[C@@]2(c3cc(Oc4ccnnc4)ccc3F)CO[C@@H](C3CC3)C[C@H]2C1=O [Example 41, (4aR,6R,8aS)-6-cyclopropyl-8a-(2-fluoro-5-(pyridazin-4-yloxy)phenyl)-2-imino-3-methylhexahydro-1H-pyrano[3,4-d]pyrimidin-4(4aH)-one]
68	82	COC[C@H]1C[C@H]2C(=O)N(C)C(=N)N[C@@]2(c2cc(OCC3CC3)c(F)cc2F)CO1 [Example 5, (4aR,6R,8aS)-8a-(5-(cyclopropylmethoxy)-2,4-difluorophenyl)-2-imino-6-(methoxymethyl)-3-methylhexahydro-1H-pyrano[3,4-d]pyrimidin-4(4aH)-one]
1450	242	C[C@H]1C[C@H]2C(=O)N(C)C(=N)N[C@@]2(c2cc(Oc3cc4ccccc4cn3)ccc2F)CO1 [Example 77, (4aR,6S,8aS)-8a-(2-fluoro-5-(isoquinolin-3-yloxy)phenyl)-2-imino-3,6-dimethylhexahydro-1H-pyrano[3,4-d]pyrimidin-4(4aH)-one]
11.8	30.3	C[C@H]1C[C@H]2C(=O)N(C)C(=N)N[C@@]2(c2cc(Oc3cnccn3)ccc2F)CO1 [Example 66, (4aR,6S,8aS)-8a-(2-fluoro-5-(pyrazin-2-yloxy)phenyl)-2-imino-3,6-dimethylhexahydro-1H-pyrano[3,4-d]pyrimidin-4(4aH)-one]
13	8	C[C@H]1C[C@H]2C(=O)N(C)C(=N)N[C@@]2(c2cc(OCC3CC3)ccc2F)CO1 [Example 23, (4aR,6S,8aS)-8a-(5-(cyclopropylmethoxy)-2-fluorophenyl)-2-imino-3,6-dimethylhexahydro-1H-pyrano[3,4-d]pyrimidin-4(4aH)-one]
11	10	CN1C(=N)N[C@@]2(c3cc(OCC4CC4)ccc3F)CO[C@@H](C3CC3)C[C@H]2C1=O [Example 24, (4aR,6R,8aS)-6-cyclopropyl-8a-(5-(cyclopropylmethoxy)-2-fluorophenyl)-2-imino-3-methylhexahydro-1H-pyrano[3,4-d]pyrimidin-4(4aH)-one]
2	13	CN1C(=N)N[C@@]2(c3cc(Oc4cc(C#N)ccn4)ccc3F)CO[C@@H](C3CC3)C[C@H]2C1=O [Example 14, 2-(3-((4aR,6R,8aS)-6-cyclopropyl-2-imino-3-methyl-4-oxohexahydro-1H-pyrano[3,4-d]pyrimidin-8a(8H)-yl)-4-fluorophenoxy)isonicotinonitrile]
27	13.5	CN1C(=N)N[C@@]2(c3cc(Oc4ncccc4F)ccc3F)COCC[C@H]2C1=O [Example 87, (4aR,8aS)-8a-(2-fluoro-5-((3-fluoropyridin-2-yl)oxy)phenyl)-2-imino-3-methylhexahydro-1H-pyrano[3,4-d]pyrimidin-4(4aH)-one]
145	31.3	C[C@H]1C[C@H]2C(=O)N(C)C(=N)N[C@@]2(c2cc(Oc3ncccc3F)ncc2F)CO1 [Example 96]
7	51	COc1cncc(Oc2ccc(F)c([C@]34CO[C@@H](C5CC5)C[C@H]3C(=O)N(C)C(=N)N4)c2)n1 [Example 42, (4aR,6R,8aS)-6-cyclopropyl-8a-(2-fluoro-5-((6-methoxypyrazin-2-yl)oxy)phenyl)-2-imino-3-methylhexahydro-1H-pyrano[3,4-d]pyrimidin-4(4aH)-one]
